Source: patent US8691812B2, “Pesticidal composition and its use” (Sumitomo Chemical Company, Limited, priority 2010, dated 2014)

Test system: Rhizoctonia solani
Test: Soybean seed treatment test in soil contaminated by Rhizoctonia solani (disease control efficacy)
Assay type: in vivo, Rhizoctonia solani on soybean (variety: Natto shoryu)
Conditions: carboxamide compound alone, 0.2 g/100 kg of seeds; soybean seed application; cultivated 20 days in soil contaminated by Rhizoctonia solani; efficacy vs non-treated plot
Description: A cyclohexanone solution (100microL) containing prescribed amount (weight) of a test compound was applied on seeds of soybean (variety : Natto shoryu) (10 g) by using a rotary apparatus for seed treatment (Seed dresser, manufactured by Hans-Ulrich Hege GmbH).
One day after the application, plastic pot was filled with soil contaminated by Rhizoctonia solani, and the seeds treated with the test compounds were seeded in the soil and cultivated in a glass-greenhouse for 20 days (hereinafter referred to as “treated plot”).
Thereafter, the presence of disease caused by Rhizoctonia solani in the young plants which germinated from each seed was observed and disease severity was calculated according to the following calculation formula (1).
On the other hand, seeds of soybean which were not treated as above were cultivated in the same way as above (hereinafter referred to as “non-treated plot”) and the disease severity in “non-treated plot” was calculated in the same way as the above “treated plot”. On the basis of the above severity of disease in “treated plot” and “non-treated plot”, efficacy in the “treated plot” was evaluated according to the following calculation formula (2).
Calculation formula (1): Disease severity (%)=(number of infected young plants/total number of young plants)×100 […]

| SMILES | efficacy (%) |
| --- | --- |
| CC1CC(C)(C)c2cccc(NC(=O)c3cn(C)nc3C(F)F)c21 (centres unmarked) [carboxamide compound (1)] | 42.1 |
| Cc1nn(C)c(C)c1C(=O)Nc1cccc2c1C(C)CC2(C)C (centres unmarked) [carboxamide compound (5)] | 21.1 |
